# Source: ChEMBL document CHEMBL5236589, “Design and Structural Optimization of Orally Bioavailable SOS1 Inhibitors for the Treatment of KRAS-Driven Carcinoma” (J Med Chem, 2022)
# pIC50: −log10 of the molar value.
# Assays:
# [1] = Inhibition of SOS1/KRAS G13D mutant protein-protein interaction in human DLD-1 cells assessed as ERK1/2 phosphorylation measured after 1 hr by homogeneous time-resolved fluorescence (HTRF) method; type: cell-based; details: DLD-1, 1 h
# [2] = AUC in ICR mouse at 20 mg/kg, po by LC-MS/MS analysis; type: ADME, organism-based; parameters: dose 20 mg/kg, route po; details: in vivo
# [3] = Elimination rate constant in ICR mouse at 20 mg/kg, po by LC-MS/MS analysis; type: ADME, organism-based; details: in vivo; for k el: ICR
# [4] = Half life in ICR mouse at 20 mg/kg, po by LC-MS/MS analysis; type: ADME, organism-based; details: in vivo; for half-life: ICR
# [5] = Cmax in ICR mouse at 20 mg/kg, po by LC-MS/MS analysis; type: ADME, organism-based; parameters: dose 20 mg/kg, route po; details: in vivo
# [6] = MRT in ICR mouse at 20 mg/kg, po by LC-MS/MS analysis; type: ADME, organism-based; details: in vivo
# [7] = Tmax in ICR mouse at 20 mg/kg, po by LC-MS/MS analysis; type: ADME, organism-based; details: in vivo
# [8] = molecular target: SOS1-KRAS (Homo sapiens, UniProt Q07889); test: Inhibition of human recombinant SOS1 (residue 564-1049)/KRAS G12C mutant protein-protein interaction at incubated for 25 degC for 60 mins by homogeneous time-resolved fluorescence (HTRF) method
# [9] = Toxicity in BALB/c mouse xenografted with human MIA PaCa-2 cells harboring KRAS G12C mutant assessed as mortality at 50 mg/kg, po once a day measured for 16 days; type: organism-based; details: in vivo, 384 h, time 16 day
# [10] = Toxicity in BALB/c mouse xenografted with human MIA PaCa-2 cells harboring KRAS G12C mutant assessed as change in body weight at 50 mg/kg, po once a day measured for 16 days; type: organism-based; details: in vivo, 384 h, time 16 day
# [11] = tested on: MIA PaCa-2; test: In vivo antitumor activity against human MIA PaCa-2 cells harboring KRAS G12C mutant xenografted in BALB/c mouse assessed as reduction in tumor volume at 50 mg/kg, po once a day measured for 16 days relative to control; type: functional; parameters: scale not given: the % may be the effect or the level left; details: time 16 day
# Chain of SOS1-KRAS (Q07889 whole entry, looked up, stated change not applied): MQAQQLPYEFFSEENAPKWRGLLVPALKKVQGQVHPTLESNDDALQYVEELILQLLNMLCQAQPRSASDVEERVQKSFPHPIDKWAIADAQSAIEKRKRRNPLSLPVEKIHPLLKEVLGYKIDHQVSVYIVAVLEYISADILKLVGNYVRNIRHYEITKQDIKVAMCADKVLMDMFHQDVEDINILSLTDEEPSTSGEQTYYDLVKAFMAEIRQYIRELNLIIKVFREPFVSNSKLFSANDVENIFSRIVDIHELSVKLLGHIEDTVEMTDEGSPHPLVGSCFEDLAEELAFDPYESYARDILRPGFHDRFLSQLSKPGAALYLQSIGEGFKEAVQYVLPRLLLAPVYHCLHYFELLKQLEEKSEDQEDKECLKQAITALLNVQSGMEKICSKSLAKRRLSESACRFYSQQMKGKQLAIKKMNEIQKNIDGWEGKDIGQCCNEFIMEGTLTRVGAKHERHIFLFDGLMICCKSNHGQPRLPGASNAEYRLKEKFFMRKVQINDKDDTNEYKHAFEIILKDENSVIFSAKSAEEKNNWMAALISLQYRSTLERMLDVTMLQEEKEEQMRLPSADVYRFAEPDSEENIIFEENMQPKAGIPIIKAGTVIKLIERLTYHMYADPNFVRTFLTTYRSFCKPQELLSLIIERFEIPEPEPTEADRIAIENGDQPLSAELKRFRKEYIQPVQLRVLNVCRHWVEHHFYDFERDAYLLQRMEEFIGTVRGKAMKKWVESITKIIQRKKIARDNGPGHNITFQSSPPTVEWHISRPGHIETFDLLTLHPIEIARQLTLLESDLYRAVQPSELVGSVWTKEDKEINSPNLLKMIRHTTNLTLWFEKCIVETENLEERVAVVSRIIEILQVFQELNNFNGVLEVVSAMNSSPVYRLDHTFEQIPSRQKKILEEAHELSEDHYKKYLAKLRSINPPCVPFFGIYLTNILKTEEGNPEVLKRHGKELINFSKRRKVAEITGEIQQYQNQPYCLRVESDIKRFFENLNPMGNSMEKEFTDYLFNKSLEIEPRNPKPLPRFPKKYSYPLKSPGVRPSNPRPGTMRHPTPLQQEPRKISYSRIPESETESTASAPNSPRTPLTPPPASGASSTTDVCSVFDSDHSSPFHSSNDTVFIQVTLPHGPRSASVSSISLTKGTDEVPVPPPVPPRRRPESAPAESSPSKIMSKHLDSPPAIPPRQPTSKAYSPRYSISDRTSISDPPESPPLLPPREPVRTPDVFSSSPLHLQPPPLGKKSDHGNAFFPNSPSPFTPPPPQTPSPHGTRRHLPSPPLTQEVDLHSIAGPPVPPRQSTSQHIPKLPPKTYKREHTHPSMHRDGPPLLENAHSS
structure (smiles),measurement,setting,value
Cc1nc(N[C@H](C)c2cccc(C(F)F)c2F)c2cc3c(cc2n1)OC[C@H]1CN(C(=O)c2ccn[nH]2)CCN31,pIC50,[1],6.42
Cc1nc(N[C@H](C)c2cccc(C(F)F)c2F)c2cc3c(cc2n1)OC[C@H]1CN(C(=O)N(C)C)CCN31,pIC50,[1],8.54
same,AUC,[2],3980 ng·h/mL
same,k el,[3],2.5e-05 s⁻¹
same,half-life,[4],12.3 h
same,Cmax,[5],621 ng/mL
same,MRT,[6],4.2 h
same,Tmax,[7],3 h
Cc1nc(N[C@H](C)c2cccc(C(F)F)c2F)c2cc3c(cc2n1)OC[C@H]1CN(C(=O)[C@@H]2CCCN2C)CCN31,pIC50,[1],6.98
Cc1nc(N[C@H](C)c2cc(N)cc(C(F)(F)F)c2)c2cc3c(cc2n1)OC[C@H]1CN(C2COC2)CCN31,pIC50,[1],7.35
same,pIC50,[8],7.81
Cc1nc(N[C@H](C)c2cccc(C(F)F)c2F)c2cc3c(cc2n1)OC[C@H]1CN(C(=O)[C@@H]2C[C@@H]2F)CCN31,pIC50,[1],7.66
Cc1nc(N[C@H](C)c2cccc(C(F)F)c2F)c2cc3c(cc2n1)OC[C@H]1CN(S(C)(=O)=O)CCN31,pIC50,[1],7.10
Cc1nc(N[C@H](C)c2cccc(C(F)F)c2F)c2cc3c(cc2n1)OC[C@H]1CN(C(=O)NC2CC2)CCN31,pIC50,[1],8.10
same,AUC,[2],3490 ng·h/mL
same,Kel,"[3]; po, 20 mg/kg",0.14 h⁻¹
same,Activity,[9],Non-Toxic
same,t1/2,"[4]; po, 20 mg/kg",12.6 h
same,Cmax,[5],557 ng/mL
same,Activity,[10],Non-Toxic
same,Activity,[11],47%
same,MRT,[6],4.36 h
same,Tmax,[7],6 h
Cc1nc(N[C@H](C)c2cccc(C(F)F)c2F)c2cc3c(cc2n1)OC[C@H]1CN(CC(=O)N(C)C)CCN31,pIC50,[1],6.53
COCCN1CCN2c3cc4c(N[C@H](C)c5cccc(C(F)F)c5F)nc(C)nc4cc3OC[C@H]2C1,pIC50,[1],7.01
COCC1(C(=O)N2CCN3c4cc5c(N[C@H](C)c6cccc(C(F)F)c6F)nc(C)nc5cc4OC[C@H]3C2)CC1,pIC50,[1],9.05
same,AUC,[2],398 ng·h/mL
same,k el,[3],8.33e-05 s⁻¹
same,half-life,[4],2.28 h
same,Cmax,[5],161 ng/mL
same,MRT,[6],2.62 h
same,Tmax,[7],0.25 h
COC(=O)N1CCN2c3cc4c(N[C@H](C)c5cccc(C(F)F)c5F)nc(C)nc4cc3OC[C@H]2C1,pIC50,[1],7.66
CC(=O)N1CCN2c3cc4c(N[C@H](C)c5cccc(C(F)F)c5F)nc(C)nc4cc3OC[C@@H]2C1,pIC50,[1],7.42
same,pIC50,[8],7.86
Cc1nc(N[C@H](C)c2cccc(C(F)F)c2F)c2cc3c(cc2n1)OC[C@H]1CN(C(=O)C2(C)CC2)CCN31,pIC50,[1],< 6.00
Cc1nc(N[C@H](C)c2cccc(C(F)F)c2F)c2cc3c(cc2n1)OC[C@H]1CN(C)CCN31,pIC50,[1],7.07
Cc1nc(N[C@H](C)c2cc(N)cc(C(F)(F)F)c2)c2cc3c(cc2n1)OC[C@H]1COCCN31,pIC50,[1],7.42
same,pIC50,[8],8.22
Cc1nc(N[C@H](C)c2cccc(C(F)F)c2F)c2cc3c(cc2n1)OC[C@H]1CN(C(=O)C2COC2)CCN31,pIC50,[1],7.60
same,AUC,[2],2010 ng·h/mL
same,k el,[3],5e-05 s⁻¹
same,half-life,[4],3.73 h
same,Cmax,[5],260 ng/mL
same,MRT,[6],4.58 h
same,Tmax,[7],3 h
Cc1nc(N[C@H](C)c2cccc(C(F)F)c2F)c2cc3c(cc2n1)OC[C@H]1CN(C2COC2)CCN31,pIC50,[1],7.02
Cc1nc(N[C@H](C)c2cc(N)cc(C(F)(F)F)c2)c2cc3c(cc2n1)OC[C@H]1CN(C2CCOCC2)CCN31,pIC50,[1],7.32
same,pIC50,[8],7.74
Cc1nc(N[C@H](C)c2cccc(C(F)F)c2F)c2cc3c(cc2n1)OC[C@H]1CN(C(=O)C2CC2)CCN31,pIC50,[1],6.44
CCNC(=O)N1CCN2c3cc4c(N[C@H](C)c5cccc(C(F)F)c5F)nc(C)nc4cc3OC[C@H]2C1,pIC50,[1],7.49
Cc1nc(N[C@H](C)c2cccc(C(F)F)c2F)c2cc3c(cc2n1)OC[C@H]1CN(C(C)C)CCN31,pIC50,[1],6.77
Cc1nc(N[C@H](C)c2cccc(C(F)F)c2F)c2cc3c(cc2n1)OC[C@H]1CN(c2ncc(F)cn2)CCN31,pIC50,[1],7.00
